According to patent US20130184202A1, “Peptide Inhibitors and Methods of Use Thereof” (priority 2011, published 2013):

Experiments:
[1] = biological target: T1, SP-D multimer (Rattus norvegicus, UniProt P35248); assay: SP-D multimer disruption, native gel electrophoresis and Western blot; type: biochemical; settings: for disruption of the SP-D multimer: RrSP-D, 25 mM, 37° C., 20 minutes, native gel
T1 sequence (P35248 20-374): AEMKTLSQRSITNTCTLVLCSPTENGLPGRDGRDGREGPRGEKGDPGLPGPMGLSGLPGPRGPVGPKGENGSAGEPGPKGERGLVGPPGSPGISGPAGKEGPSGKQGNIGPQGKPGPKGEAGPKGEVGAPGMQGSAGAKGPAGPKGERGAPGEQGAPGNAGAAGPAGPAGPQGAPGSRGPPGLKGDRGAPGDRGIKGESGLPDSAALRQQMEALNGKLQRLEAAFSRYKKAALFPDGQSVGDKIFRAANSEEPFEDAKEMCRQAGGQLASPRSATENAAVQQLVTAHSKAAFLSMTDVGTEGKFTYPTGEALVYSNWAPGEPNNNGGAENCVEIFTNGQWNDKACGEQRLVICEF

[2] = biological target: HIV gp120 LAV (Human immunodeficiency virus type 1 group M subtype B, UniProt P03377); settings: preincubated, denatured, SDS PAGE, Coomassie blue
Method: Peptides were designed to disrupt HIV gp120 formation. […] HIV gp120 LAV preincubated without (lane 1) or with DTT (lane 2), L-cysteine (lane 3), CJ-3 (lane 4) CJ-4 (lane 5) or CJ-3 and CJ-4 (lane 6) was denatured and subjected to SDS PAGE gel electrophoresis. The resulted proteins were visualized by Coomassie blue staining (FIG. 15C).

[3] = tested on: HIV X4 strain NL4-3; assay: HIV reverse transcriptase (RT) assay in supernatants of infected Jurkat T cells; type: cell-based; settings: NL4-3 preincubated 1 hour at 37° C.; Jurkat T cells infected 16 hours; supernatants day 6 postinfection
Method: The HIV X4 strain NL4-3 was preincubated without (control) or with peptide CJ-2 which was a peptide with two cysteines in the hydrophilic domain, peptide CJ-3 which was derived from gp120, or peptide CJ-4 which was derived from gp41 for 1 hour at 37° C. at the concentrations indicated. The Jurkat T cells (0.5×10^6 cell/ml) were infected by NL4-3 (30 ng/ml) for 16 hours and washed. The supernatants at day 6 postinfection was collected and subjected to HIV reverse transcriptase (RT) assay. The data are shown represent the mean±SD of duplicate cultures (FIG. 15D).

[4] = biological target: T2, RrSP-D (Rattus norvegicus, UniProt P35248); assay: SP-D trimer/structure disruption, SDS-PAGE and Western blot; type: biochemical; settings: for disruption of SP-D structure (specificity): 50 ng RrSP-D, equimolar concentration, non-reducing denaturing SDS-PAGE
T2 sequence (P35248 20-374): T1 sequence (P35248 20-374)
Method: FIG. 12A provides a hydrophobicity plot of the designed peptide CJ-1 (SEQ ID NO: 1). CJ-1 was directly derived from SP-D sequence within which cysteine residues are located in the hydrophobic pocket. RrSP-D (50 ng) was incubated with or without CJ-1 (10 mM) or DTT (10 mM) at 37° C. for 20 minutes (FIG. 12B). […] RrSP-D (50 ng) was incubated with different doses of CJ-1 (0.01-10 mM) at 37° C. for 20 minutes.
By matching the reduced cysteines within the peptide to those in the target protein one can specifically disrupt structure. Using 50 ng of RrSP-D the effect of an equimolar concentration of CJ-1, targeted peptide; CJ-2, a scrambled version of CJ-1 with no hydrophobic pocket; or L-cysteine was analyzed. Following incubation SP-D structure was assessed by non-reducing denaturing SDS-PAGE.

[5] = biological target: T3, SNO-SP-D (Rattus norvegicus, UniProt P35248); assay: Biotin-Switch analysis of SNO-SP-D content; type: biochemical; settings: NO-treated RrSP-D incubated with 1 μM or 10 μM
T3 sequence (P35248 20-374): T1 sequence (P35248 20-374)
Method: (§1) RrSP-D was incubated with 100 μM of nitric oxide for 30 minutes to generate SNO-SP-D (FIG. 14A). The resultant protein was incubated with CJ-1 (1 μM or 10 μM). The protein samples were subjected to Biotin-Switch analysis to determine SNO-SP-D content. Lane 1 untreated RrSP-D; Lane 2 NO-treated RrSP-D; Lane 3 NO-treated RrSP-D+1 μM CJ-1; Lane 4 NO-treated RrSP-D+10 μM CJ-1. […] The chemoattractive activity to RAW 264.7 cells was assayed using a Boydin Chamber.

[6] = tested on: RAW 264.7 cells; assay: Chemotactic activity, Boydin Chamber; type: cell-based; settings: SNO-SP-D samples treated with 1 μM or 10 μM
Method: as §1

[7] = tested on: RAW 264.7 cells; assay: Real-time qPCR of pro-inflammatory mediator mRNA (IL-1β, iNOS, ptgs2, CCL2); type: cell-based; settings: 10 μM, 3 hours, without LPS
Method: Raw 264.7 cells were incubated with or without CJ-1 (10 μM) or SNO-CJ-1 (10 μM) for 3 hours (FIG. 17A) or incubated with or without CJ-1 (10 μM) or SNO-CJ-1 (10 μM) for 20 minutes and treated with LPS (1 ng/mL) for an additional 3 hours (FIG. 17B). The cells were lysed and total RNA was isolated and subjected to real-time qPCR for mRNA expression of IL-1β, iNOS, ptgs2 and CCL2. SNO-CJ-1 inhibits mRNA expression of pro-inflammatory mediators.

[8] = tested on: RAW cells; assay: iNOS and IL-1β mRNA expression by RT-PCR after BAL treatment; type: cell-based; settings: RAW cells treated with SNO-OE-BAL in the presence of the NF-κB inhibitor
Method: RAW cells were treated with BAL prepared from overexpressing mice, either with or without prior transnitrosation with L-SNOC.
RAW cells were treated with OE-BAL or SNO-OE-BAL in the presence and absence of the NF-κB inhibitor caffeic acid phenethyl ester (CAPE).

Row | Compound | disruption of the SP-D multimer [1] | disruption of the structure of HIV gp120 LAV [2] | inhibition of HIV (RT activity in supernatants) [3] | disruption of SP-D structure (specificity) [4] | further results
1 | N[C@@H](CSN=O)C(=O)O [L-SNOC, L-S-nitroso-cysteine] | capable of disrupting the SP-D multimer at high concentration |  |  |  | disruption of native SP-D multimers ([1]; BAL from SP-D overexpressing mice or 0.2 μM recombinant SP-D treated with L-SNOC, native electrophoresis, Western blot): disruption of the native multimers to dodecamers and trimers
2 | VPVWKDAETTLFCASDAK [CJ-3, peptide derived from gp120] |  | disrupted the structure of HIV gp120 LAV | inhibited HIV |  | 
3 | N[C@@H](CS)C(=O)O [L-cysteine, reference compound] | capable of disrupting the SP-D multimer at high concentration |  |  | Only CJ-1 is capable of disrupting SP-D structure | 
4 | AEMKSLSQRSVPNTCTLVMCSPTE [CJ-1] |  |  |  | capable of disrupting SP-D structure | disruption of SP-D, dose dependence ([4]; RrSP-D 50 ng, 0.01-10 mM, 37° C., 20 minutes): disrupts SP-D in a dose-dependent manner; disruption of SP-D trimers ([4]; RrSP-D 50 ng, 10 mM, 37° C., 20 minutes, SDS PAGE, Western blot): disrupts SP-D trimers; SNO-SP-D content (S-nitrosothiol) [5]: depleted S-nitrosothiol from SNO-SP-D; SNO-SP-D induced RAW 264.7 cell migration [6]: inhibits the ability of SNO-SP-D to induce RAW 264.7 cell migration; induction of transcription of inflammatory genes [7]: capable of inducing transcription of inflammatory genes within macrophages
5 | O=C(/C=C/c1ccc(O)c(O)c1)OCCc1ccccc1 [CAPE, caffeic acid phenethyl ester] |  |  |  |  | effect on SNO-OE-BAL mediated increase in iNOS expression [8]: completely abrogated the increase in iNOS expression
6 | LVWEDLRNLCLFSYRLLR [CJ-4, peptide derived from gp41] |  | disrupted the structure of HIV gp120 LAV | inhibited HIV |  | 
